{"source": "patent US20100286389A1", "about": "“STABLE CRYSTAL OF BETA-LACTAM COMPOUND” (priority 2007, published 2010)", "key": {"[1]": {"experiment": "Stability test on Form I crystal under humidity condition (Test 4)", "format": "physicochemical", "conditions": "usual handling condition", "from_the_text": "Evaluation was based on change of area percentage of Compound A with HPLC (High Performance Liquid Chromatography) under following conditions:\n(§1) Column: SUMIPAX ODS-A212 (silica gel binding with octadecyl group, particle size 5 μm; 6.0 mm φ×15 cm), mobile phase A solution: a mixture of 0.005 mol/L phosphate buffer (pH7.0) and acetonitrile (300:23(v/v)), mobile phase B solution: acetonitrile, solvent for sample: water and acetonitrile (90:10(v/v)), wavelength: 220 nm, column temperature: constant temperature around 25° C., flow rate: 1.0 mL/min, injection amount: 10 μL, and gradient condition: […]\nIn order to confirm the stability on Form I crystal under humidity condition was conducted following test. The test was carried out by using moisture-absorbed Form I crystal, which was prepared by storing Form I crystal obtained by the method of Example 2 under the atmosphere with 53% RH in a whole day in order to make it absorb moisture."}, "[2]": {"experiment": "Stability test (Test 3), closed vial, HPLC area percentage of Compound A", "format": "physicochemical", "description": "Stability test on each test sample was conducted under following storage conditions.\nas §1"}, "[3]": {"system": "Gram positive bacteria, especially methicillin resistant staphylococcus and methicillin resistant coagulase negative staphylococcus", "conditions": "cited from earlier work"}}, "data": [{"smiles": "C[C@H]1C=C(c2csc(SC3=C(C(=O)O)N4C(=O)[C@H]([C@@H](C)O)[C@H]4[C@H]3C)n2)CN1", "note": "[Form I crystal, (4R,5S,6S)-6-[(1R)-1-hydroxyethyl]-4-methyl-3-({4-[(5S)-5-methyl-2,5-dihydro-1H-pyrrol-3-yl]-1,3-thiazol-2-yl}thio)-7-oxo-1-azabicyclo[3.2.0]hept-2-ene-2-carboxylic acid]", "values": [{"measurement": "Moisture absorption in words", "setting": "[1]", "value": "absorbs a little moisture"}, {"measurement": "Stability in words", "setting": "[1]", "value": "excellent"}, {"measurement": "Compound A (HPLC surface area %)", "setting": "[2]; closed vial at 55° C., 2 weeks", "value": 99.60, "unit": "%"}, {"measurement": "Difference from initial value (HPLC surface area %)", "setting": "[2]; closed vial at 55° C., 2 weeks", "value": "−0.17", "unit": "%"}, {"measurement": "Compound A (HPLC surface area %)", "setting": "[2]; closed vial at 55° C., 4 weeks", "value": 99.60, "unit": "%"}, {"measurement": "Difference from initial value (HPLC surface area %)", "setting": "[2]; closed vial at 55° C., 4 weeks", "value": "−0.17", "unit": "%"}, {"measurement": "Compound A (HPLC surface area %)", "setting": "[2]; closed vial at 55° C., Initial", "value": 99.77, "unit": "%"}, {"measurement": "Difference from initial value (HPLC surface area %)", "setting": "[2]; closed vial at 55° C., Initial", "value": 0, "unit": "%"}, {"measurement": "Stability in words", "setting": "[2]; normal / usual storage condition, conclusion from the stability tests", "value": "extremely stable"}]}, {"smiles": "C[C@H]1C=C(c2csc(SC3=C(C(=O)O)N4C(=O)[C@H]([C@@H](C)O)[C@H]4[C@H]3C)n2)CN1", "note": "[Compound A, (4R,5S,6S)-6-[(1R)-1-hydroxyethyl]-4-methyl-3-({4-[(5S)-5-methyl-2,5-dihydro-1H-pyrrol-3-yl]-1,3-thiazol-2-yl}thio)-7-oxo-1-azabicyclo[3.2.0]hept-2-ene-2-carboxylic acid]", "values": [{"measurement": "Activity against Gram positive bacteria", "setting": "[3]", "value": "excellent activity"}]}, {"smiles": "C[C@H]1C=C(c2csc(SC3=C(C(=O)O)N4C(=O)[C@H]([C@@H](C)O)[C@H]4[C@H]3C)n2)CN1", "note": "[amorphous Compound A, (4R,5S,6S)-6-[(1R)-1-hydroxyethyl]-4-methyl-3-({4-[(5S)-5-methyl-2,5-dihydro-1H-pyrrol-3-yl]-1,3-thiazol-2-yl}thio)-7-oxo-1-azabicyclo[3.2.0]hept-2-ene-2-carboxylic acid]", "values": [{"measurement": "Compound A (HPLC surface area %)", "setting": "[2]; closed vial at 50° C., 1 week", "value": 73.40, "unit": "%"}, {"measurement": "Compound A (HPLC surface area %)", "setting": "[2]; closed vial at 50° C., 3 weeks", "value": 54.53, "unit": "%"}, {"measurement": "Compound A (HPLC surface area %)", "setting": "[2]; closed vial at 50° C., 6 weeks", "value": 39.93, "unit": "%"}, {"measurement": "Compound A (HPLC surface area %)", "setting": "[2]; closed vial at 50° C., 8 weeks", "value": 41.33, "unit": "%"}, {"measurement": "Compound A (HPLC surface area %)", "setting": "[2]; closed vial at 50° C., 1 day", "value": 91.68, "unit": "%"}, {"measurement": "Compound A (HPLC surface area %)", "setting": "[2]; closed vial at 50° C., Initial", "value": 97.95, "unit": "%"}]}]}
